Experimental data taken from ChEMBL document CHEMBL3232814, “Synthesis and anticancer structure activity relationship investigation of cationic anthraquinone analogs” (2014).

Experiments:
[1] = Growth inhibition of human NCI60 cells assessed as cell growth; assay type: functional; design: concentration or dose not given beside the values
[2] = Growth inhibition of human LOXIMVI cells; assay type: functional; conditions: LOX IMVI; for CC50: read-out: LC50 (the source's name)
Malme-3M = experiment: Growth inhibition of human MALME-3M cells; assay type: functional; conditions: for CC50: read-out: LC50 (the source's name)
M14 = experiment: Growth inhibition of human M14 cells; assay type: functional; conditions: for CC50: read-out: LC50 (the source's name)
MDA-MB-435 = experiment: Growth inhibition of human MDA-MB-435 cells; assay type: functional; conditions: for CC50: read-out: LC50 (the source's name)
SK-MEL-2 = experiment: Growth inhibition of human SK-MEL-2 cells; assay type: functional; conditions: for CC50: read-out: LC50 (the source's name)
SK-MEL-28 = experiment: Growth inhibition of human SK-MEL-28 cells; assay type: functional; conditions: for CC50: read-out: LC50 (the source's name)
SK-MEL-5 = experiment: Growth inhibition of human SK-MEL-5 cells; assay type: functional
[3] = Growth inhibition of human UACC257 cells; assay type: functional; conditions: for GI50: UACC-257; for CC50: UACC-257, read-out: LC50 (the source's name)
[4] = Growth inhibition of human UACC62 cells; assay type: functional; conditions: for GI50: UACC-62; for CC50: UACC-62, read-out: LC50 (the source's name)
COLO 205 = experiment: Growth inhibition of human COLO205 cells; assay type: functional; conditions: for CC50: read-out: LC50 (the source's name)
[5] = Growth inhibition of human HCC2998 cells; assay type: functional; conditions: for GI50: HCC 2998; for CC50: HCC 2998, read-out: LC50 (the source's name)
HCT-116 = experiment: Growth inhibition of human HCT116 cells; assay type: functional; conditions: for CC50: read-out: LC50 (the source's name)
[6] = Growth inhibition of human HCT15 cells; assay type: functional; conditions: for GI50: HCT-15; for CC50: HCT-15, read-out: LC50 (the source's name)
HT-29 = experiment: Growth inhibition of human HT-29 cells; assay type: functional
KM12 = experiment: Growth inhibition of human KM12 cells; assay type: functional; conditions: for CC50: read-out: LC50 (the source's name)
SW-620 = experiment: Growth inhibition of human SW620 cells; assay type: functional; conditions: for CC50: read-out: LC50 (the source's name)
A549 = experiment: Growth inhibition of human A549 cells; assay type: functional; conditions: for CC50: read-out: LC50 (the source's name)
[7] = Growth inhibition of human EKVX cells; assay type: functional; conditions: for CC50: read-out: LC50 (the source's name)
HOP-62 = experiment: Growth inhibition of human HOP62 cells; assay type: functional; conditions: for CC50: read-out: LC50 (the source's name)
[8] = Growth inhibition of human HOP92 cells; assay type: functional; conditions: for GI50: HOP-92; for CC50: HOP-92, read-out: LC50 (the source's name)
NCI-H226 = experiment: Growth inhibition of human NCI-H226 cells; assay type: functional; conditions: for CC50: read-out: LC50 (the source's name)
NCI-H23 = experiment: Growth inhibition of human NCI-H23 cells; assay type: functional; conditions: for CC50: read-out: LC50 (the source's name)
NCI-H460 = experiment: Growth inhibition of human NCI-H460 cells; assay type: functional; conditions: for CC50: read-out: LC50 (the source's name)
NCI-H522 = experiment: Growth inhibition of human NCI-H522 cells; assay type: functional; conditions: for CC50: read-out: LC50 (the source's name)
SF-268 = experiment: Growth inhibition of human SF268 cells; assay type: functional; conditions: for CC50: read-out: LC50 (the source's name)
[9] = Growth inhibition of human SF295 cells; assay type: functional; conditions: SF-295
[10] = Growth inhibition of human SF539 cells; assay type: functional; conditions: for GI50: SF-539; for CC50: SF-539, read-out: LC50 (the source's name)
SNB-19 = experiment: Growth inhibition of human SNB19 cells; assay type: functional
SNB-75 = experiment: Growth inhibition of human SNB75 cells; assay type: functional; conditions: for CC50: read-out: LC50 (the source's name)
U-251 = experiment: Growth inhibition of human U251 cells; assay type: functional
Staphylococcus aureus = experiment: Antimicrobial activity against Staphylococcus aureus ATCC 25923 after 12 to 18 hrs by 2-fold serial dilution method; assay type: functional
[11] = system: NCI-60 human cancer cell line panel (Homo sapiens); experiment: Anticancer activity against NCI 60 human cancer cell lines assessed as mean cell growth in single dose assay
NCI-H322M = experiment: Growth inhibition of human NCI-H322M cells; assay type: functional

C[n+]1nn(-c2ccccc2)c2c1C(=O)c1ccccc1C2=O.[Cl-]
Activity [1]: -10.18% | GI50 [2]: 1160 nM | CC50 [2]: 5550 nM | GI50 (Malme-3M): 210 nM | CC50 (Malme-3M): 650 nM | GI50 (M14): 200 nM | CC50 (M14): 550 nM | GI50 (MDA-MB-435): 200 nM | CC50 (MDA-MB-435): 580 nM | GI50 (SK-MEL-2): 2180 nM | CC50 (SK-MEL-2): 6440 nM | GI50 (SK-MEL-28): 1190 nM | CC50 (SK-MEL-28): 6470 nM | GI50 (SK-MEL-5): 180 nM | LC50 (lethal concentration 50) (SK-MEL-5): 550 nM | GI50 [3]: 1700 nM | CC50 [3]: 4490 nM | GI50 [4]: 1090 nM | CC50 [4]: 5230 nM | GI50 (COLO 205): 190 nM | CC50 (COLO 205): 620 nM | GI50 [5]: 340 nM | CC50 [5]: 3690 nM | GI50 (HCT-116): 320 nM | CC50 (HCT-116): 1500 nM | GI50 [6]: 1290 nM | CC50 [6]: 6370 nM | GI50 (HT-29): 400 nM | LC50 (HT-29): > 100000 nM | GI50 (KM12): 820 nM | CC50 (KM12): 9300 nM | GI50 (SW-620): 550 nM | CC50 (SW-620): 3840 nM | GI50 (A549): 350 nM | CC50 (A549): 5460 nM | GI50 [7]: 1890 nM | CC50 [7]: 12600 nM | GI50 (HOP-62): 760 nM | CC50 (HOP-62): 5570 nM | GI50 [8]: 4170 nM | CC50 [8]: 9150 nM | CC50 (NCI-H226): 5300 nM | GI50 (NCI-H23): 980 nM | CC50 (NCI-H23): 6540 nM | GI50 (NCI-H460): 300 nM | CC50 (NCI-H460): 4230 nM | GI50 (NCI-H522): 11500 nM | CC50 (NCI-H522): 7740 nM | GI50 (SF-268): 1640 nM | CC50 (SF-268): > 100000 nM | GI50 [9]: 540 nM | LC50 (concentration killing 50% of cells) [9]: 4970 nM | GI50 [10]: 1090 nM | CC50 [10]: 4720 nM | GI50 (SNB-19): 1070 nM | LC50 (SNB-19): 4340 nM | GI50 (SNB-75): 640 nM | CC50 (SNB-75): 5870 nM | GI50 (U-251): 1260 nM | LC50 (U-251): 4330 nM | MIC (Staphylococcus aureus): 8 µg/mL

CCCCCCCCn1n[n+](C)c2c1C(=O)c1ccccc1C2=O.[Cl-]
MIC (Staphylococcus aureus): 0.032 µg/mL | Activity [11]: 44.8%

COc1cc(-n2n[n+](C)c3c2C(=O)c2ccccc2C3=O)cc(OC)c1OC.O=S(=O)([O-])C(F)(F)F
Activity [1]: -27.06% | GI50 [2]: 1190 nM | CC50 [2]: > 100000 nM | GI50 (Malme-3M): 300 nM | CC50 (Malme-3M): 3260 nM | GI50 (M14): 480 nM | CC50 (M14): 4510 nM | GI50 (MDA-MB-435): 190 nM | CC50 (MDA-MB-435): 670 nM | GI50 (SK-MEL-2): 1750 nM | CC50 (SK-MEL-2): 8090 nM | GI50 (SK-MEL-28): 1370 nM | CC50 (SK-MEL-28): 7110 nM | GI50 (SK-MEL-5): 240 nM | LC50 (lethal concentration 50) (SK-MEL-5): 2320 nM | GI50 [3]: 1370 nM | CC50 [3]: 5810 nM | GI50 [4]: 1230 nM | CC50 [4]: 6120 nM | GI50 (COLO 205): 390 nM | CC50 (COLO 205): 5050 nM | GI50 [5]: 1630 nM | CC50 [5]: 8220 nM | GI50 (HCT-116): 460 nM | CC50 (HCT-116): 18000 nM | GI50 [6]: 1350 nM | GI50 (HT-29): 340 nM | LC50 (HT-29): > 100000 nM | GI50 (KM12): 2110 nM | CC50 (KM12): > 100000 nM | GI50 (SW-620): 1990 nM | CC50 (SW-620): > 100000 nM | GI50 (A549): 1680 nM | CC50 (A549): > 100000 nM | GI50 (HOP-62): 1310 nM | CC50 (HOP-62): 7220 nM | GI50 [8]: 1920 nM | CC50 [8]: > 100000 nM | GI50 (NCI-H226): 1800 nM | CC50 (NCI-H226): 18000 nM | GI50 (NCI-H23): 1940 nM | GI50 (NCI-H322M): 400 nM | CC50 (NCI-H322M; read-out: LC50 (the source's name)): 5270 nM | GI50 (NCI-H460): 790 nM | CC50 (NCI-H460): > 100000 nM | GI50 (NCI-H522): 1710 nM | CC50 (NCI-H522): 8380 nM | GI50 (SF-268): 870 nM | CC50 (SF-268): > 100000 nM | GI50 [9]: 540 nM | LC50 (concentration killing 50% of cells) [9]: 4670 nM | GI50 [10]: 400 nM | CC50 [10]: 3800 nM | GI50 (SNB-19): 1400 nM | LC50 (SNB-19): 6990 nM | GI50 (SNB-75): 1430 nM | CC50 (SNB-75): 5340 nM | GI50 (U-251): 1540 nM | LC50 (U-251): 5520 nM | MIC (Staphylococcus aureus): 32 µg/mL

COc1ccc(-n2n[n+](C)c3c2C(=O)c2ccccc2C3=O)cc1.O=S(=O)([O-])C(F)(F)F
Activity [1]: -24.7% | GI50 [2]: 1240 nM | GI50 (Malme-3M): 240 nM | CC50 (Malme-3M): 2110 nM | GI50 (M14): 210 nM | CC50 (M14): 880 nM | GI50 (MDA-MB-435): 190 nM | CC50 (MDA-MB-435): 680 nM | GI50 (SK-MEL-2): 2050 nM | CC50 (SK-MEL-2): > 100000 nM | GI50 (SK-MEL-28): 1130 nM | CC50 (SK-MEL-28): 6520 nM | GI50 (SK-MEL-5): 160 nM | LC50 (lethal concentration 50) (SK-MEL-5): 610 nM | GI50 [3]: 1450 nM | CC50 [3]: 5520 nM | GI50 [4]: 1010 nM | CC50 [4]: 6160 nM | GI50 (COLO 205): 230 nM | CC50 (COLO 205): 960 nM | GI50 [5]: 450 nM | CC50 [5]: 4720 nM | GI50 (HCT-116): 370 nM | CC50 (HCT-116): > 100000 nM | GI50 [6]: 1230 nM | CC50 [6]: 7170 nM | GI50 (HT-29): 380 nM | LC50 (HT-29): > 100000 nM | GI50 (KM12): 970 nM | CC50 (KM12): 6240 nM | GI50 (SW-620): 380 nM | CC50 (SW-620): 5330 nM | GI50 (A549): 330 nM | CC50 (A549): > 100000 nM | GI50 [7]: 2420 nM | CC50 [7]: 33000 nM | GI50 (HOP-62): 980 nM | CC50 (HOP-62): 5140 nM | GI50 [8]: 3470 nM | CC50 [8]: > 100000 nM | GI50 (NCI-H23): 1050 nM | CC50 (NCI-H23): > 100000 nM | GI50 (NCI-H460): 300 nM | CC50 (NCI-H460): 6320 nM | GI50 (NCI-H522): 2050 nM | CC50 (NCI-H522): 18200 nM | GI50 (SF-268): 1720 nM | CC50 (SF-268): > 100000 nM | GI50 [9]: 630 nM | LC50 (concentration killing 50% of cells) [9]: 5250 nM | GI50 [10]: 1280 nM | CC50 [10]: 5600 nM | GI50 (SNB-19): 1010 nM | LC50 (SNB-19): 4940 nM | GI50 (SNB-75): 1250 nM | CC50 (SNB-75): 5150 nM | GI50 (U-251): 1160 nM | LC50 (U-251): 5770 nM | MIC (Staphylococcus aureus): 4 µg/mL
